{"source": "patent US11938136B2", "about": "“Compositions for treating spinal muscular atrophy” (Hoffmann-La Roche Inc., priority 2015, dated 2024)", "key": {"SMN protein": {"tested_on": "SMN protein", "assay": "SMN protein in brain and quadriceps muscle of SMNΔ7 mice (HTRF)", "assay_type": "in vivo, mouse", "method": "(A) SMN protein in brains of C/C-allele mice. (B) SMN protein in brains of SMNΔ7 mice. (C) SMN protein in quadriceps muscle of C/C-allele mice. (D) SMN protein in quadriceps muscle of SMNΔ7 mice. C/C-allele mice and SMNΔ7 mice were treated with the compound of Example 20. One hour after the last dose, brains and quadriceps muscles were collected and levels of SMN protein were assessed by HTRF. Data represent means SEM of 5-6 animals per group and are expressed as fold change vs. vehicle-treated controls. *=p<0.05, **=p<0.01, ***=p<0.001 vs. untreated controls.\nIn vivo, the compound of Example 20 increases SMN protein in the brain and muscle in the severe SMNΔ7 model and the milder C/C-allele model, carrying human SMN2 transgenes. Adult C/C-allele mice were treated for 10 days with vehicle or the compound of Example 20 (1, 3 or 10 mg/kg PO, daily), and 3 days old (P3) SMNΔ7 mice were treated for 7 days with vehicle or the compound of Example 20 (0.1, 0.3, 1 or 3 mg/kg IP, daily). […] In SMNΔ7 mice, the SMN protein increase was only partial in both brain and muscle, reaching approximately 43% (brain) and 55% (muscle) of protein levels in heterozygous mice."}, "[1]": {"tested_on": "full length SMN2 minigene mRNA", "assay": "SMN2 minigene mRNA splicing RT-qPCR assay in cultured cells", "assay_type": "cell-based, human", "from_the_text": "The term “EC1.5x concentration for production of full length SMN2 minigene mRNA” (or “EC1.5x minigene”) is defined as that concentration of test compound that is effective in increasing the amount of full length SMN2 minigene mRNA to a level 1.5-fold greater relative to that in vehicle-treated cells.\nThe reverse transcription-quantitative PCR-based (RT-qPCR) assay is used to quantify the level of the full length SMN2 minigene (referred to herein by the term “FL SMN2mini”) mRNA containing SMN2 exon 7 in a HEK293H cell line stably transfected with said minigene and treated with a test compound. Materials used and respective sources are listed below in Table 1.\nThe SMN2-A minigene construct was prepared as described in International Patent Application WO2009/151546A1 page 145 paragraph [00400] to page 147 paragraph [00412](incl. FIG. 1 and FIG. 3 therein).\nHEK293H cells stably transfected with the SMN2-A minigene construct (10,000 cells/well) are seeded in 200 μL of cell culture medium (DMEM plus 10% FBS, with 200 μg/mL hygromycin) in 96-well flat-bottom plates and the plate is immediately swirled to ensure proper dispersal of cells and the formation of an even monolayer of cells. Cells are allowed to attach for 6 hours. Test compounds are serially diluted 3.16-fold in 100% DMSO to generate a 7-point concentration curve. A solution of test compound (1 μL, 200× in DMSO) is added to each cell-containing well and the plate is incubated for 24 hours in a cell culture incubator (37° C., 5% CO2, 100% relative humidity). 2 replicates are prepared for each test compound concentration. The cells are then lysed in the Cells-To-Ct lysis buffer and the lysate is stored at −80° C.\nFull length SMN2-A minigene and GAPDH mRNA are quantified using the primers and probes referenced in WO2014/209841A2 on page 80 in Table 1. Primer SMN Forward A (SEQ ID NO.1) hybridizes to a nucleotide sequence in exon 7 (nucleotide 22 to nucleotide 40), primer SMN Reverse A (SEQ ID NO.2) hybridizes to a nucleotide sequence in the coding sequence of Firefly luciferase, SMN Probe A (SEQ ID NO.3) hybridizes to a nucleotide sequence in exon 7 (nucleotide 50 to nucleotide 54) and exon 8 (nucleotide 1 to nucleotide 21). The combination of these three oligonucleotides detects only SMN1 or SMN2 minigenes (RT-qPCR) and will not detect endogenous SMN1 or SMN2 genes.\nThe SMN forward and reverse primers are used at final concentrations of 0.4 μM. The SMN probe is used at a final concentration of 0.15 μM. The GAPDH primers are used at final concentrations of 0.2 μM and the probe at 0.15 μM.\nThe SMN2-minigene GAPDH mix (15 μL total volume) is prepared by combining 7.5 μL of 2×RT-PCR buffer, 0.4 μL of 25×RT-PCR enzyme mix, 0.75 μL of 20×GAPDH primer-probe mix, 4.0075 μL of water, 2 μL of 10-fold diluted cell lysate, 0.06 μL of 100 μM SMN forward primer, 0.06 μL of 100 μM SMN reverse primer, and 0.225 μL of 100 μM SMN probe.\nPCR is carried out at the following temperatures for the indicated time: Step 1: 48° C. (15 min); Step 2: 95° C. (10 min); Step 3: 95° C. (15 sec); Step 4: 60° C. (1 min); then repeat Steps 3 and 4 for a total of 40 cycles.\nEach reaction mixture contains both SMN2-A minigene and GAPDH primers/probe sets (multiplex design), allowing simultaneous measurement of the levels of two transcripts.\nThe increase in the abundance of the FL SMN2mini mRNA relative to that in cells treated with vehicle control is determined from real-time PCR data using a modified ΔΔCt method (as described in Livak and Schmittgen, Methods, 2001, 25:402-8). The amplification efficiency E is calculated from the slope of the amplification curve for FL SMN2mini and GAPDH individually. The abundance of FL SMN2mini and GAPDH mRNA are then calculated as (1+E)^−Ct, where Ct is the threshold value for each amplicon. The abundance of FL SMN2mini mRNA is normalized to GAPDH mRNA abundance. […]"}, "SMNΔ7 mice": {"tested_on": "SMNΔ7 mice", "assay": "Neuromuscular connectivity and muscle atrophy in SMNΔ7 mice (immunohistochemistry)", "assay_type": "in vivo, mouse", "conditions": "0.1, 0.3, 1 mg/kg IP once per day, P3 to P14", "method": "SMNΔ7 mice were treated with the compound of Example 20 from P3 to P14, and neuromuscular connectivity and muscle atrophy were assessed by immunohistochemistry. (A) vGlut1-positive proprioceptive inputs in L3-5 spinal cord. (B) Ventral motor axons in L3-5 spinal cord. (C) NMJ innervation onto longissimus muscle. (D) EDL muscle cross-sectional area. Data represent means SEM of 4-5 mice per group. *=p<0.05; **=p<0.01; ***=p<0.001 vs. vehicle-treated SMNΔ7 mice.\nLastly, the compound of Example 20 improves neuromuscular connectivity in a severe SMA mouse model in vivo. SMNΔ7 mice were treated from P3 to P14 by IP application of vehicle or 0.1, 0.3, 1 mg/kg Example 20 once per day. At P14, 1 hour after the last dose spinal cord and muscle tissues were processed for histological assessment."}}}
{"smiles": "Cc1cn2nc(-c3cc(=O)n4cc(N5CCNC6(CC6)C5)ccc4n3)cc(C)c2n1", "note": "[Example 20, 7-(4,7-diazaspiro[2.5]octan-7-yl)-2-(2,8-dimethylimidazo[1,2-b]pyridazin-6-yl)pyrido[1,2-a]pyrimidin-4-one]", "values": [{"measurement": "SMN protein in brain, of protein levels in heterozygous mice", "setting": "SMN protein; SMNΔ7 mice", "result": "approximately 43%"}, {"measurement": "SMN protein in muscle, of protein levels in heterozygous mice", "setting": "SMN protein; SMNΔ7 mice", "result": "~55", "unit": "%"}, {"measurement": "maximum increase of SMN protein levels in brain and muscle tissue", "setting": "SMN protein; neonatal SMNΔ7 mice, 1-3 mg/kg IP daily, 7 days from P3", "result": "2-3 fold"}, {"measurement": "EC (1.5-fold increase)", "setting": "[1]; Homo sapiens, HEK293-H, HEK293H cells stably transfected with SMN2-A minigene, 24 hours, 7-point concentration curve, read-out: EC1.5x minigene", "result": "0.0047 ± 0.0007", "unit": "µM"}, {"measurement": "maximum induction of SMN2 minigene full length mRNA", "setting": "[1]; cells expressing the SMN2 minigene", "result": 20, "unit": "fold"}, {"measurement": "fiber size in extensor digitorum longus (EDL) muscles relative to vehicle-treated SMNΔ7 mice", "setting": "SMNΔ7 mice", "result": "dose-dependently and significantly increased"}, {"measurement": "number of motor axons relative to vehicle-treated SMNΔ7 mice", "setting": "SMNΔ7 mice", "result": "dose-dependently and significantly increased"}, {"measurement": "number of vGlut1 inputs relative to vehicle-treated SMNΔ7 mice", "setting": "SMNΔ7 mice", "result": "dose-dependently and significantly increased"}, {"measurement": "percentage of fully innervated NMJs relative to vehicle-treated SMNΔ7 mice", "setting": "SMNΔ7 mice; longissimus muscle", "result": "dose-dependently and significantly increased"}]}
